Here are results for 16 compounds from ChEMBL document CHEMBL1144973, “Design, synthesis, and structure-activity relationship of a new class of amidinophenylurea-based factor VIIa inhibitors” (Bioorg Med Chem Lett, 2003).

Bounds are passed on as bounds.

For one test, the target named is T1, Coagulation factor VII (Homo sapiens, UniProt P08709).
T1 sequence (P08709 whole entry): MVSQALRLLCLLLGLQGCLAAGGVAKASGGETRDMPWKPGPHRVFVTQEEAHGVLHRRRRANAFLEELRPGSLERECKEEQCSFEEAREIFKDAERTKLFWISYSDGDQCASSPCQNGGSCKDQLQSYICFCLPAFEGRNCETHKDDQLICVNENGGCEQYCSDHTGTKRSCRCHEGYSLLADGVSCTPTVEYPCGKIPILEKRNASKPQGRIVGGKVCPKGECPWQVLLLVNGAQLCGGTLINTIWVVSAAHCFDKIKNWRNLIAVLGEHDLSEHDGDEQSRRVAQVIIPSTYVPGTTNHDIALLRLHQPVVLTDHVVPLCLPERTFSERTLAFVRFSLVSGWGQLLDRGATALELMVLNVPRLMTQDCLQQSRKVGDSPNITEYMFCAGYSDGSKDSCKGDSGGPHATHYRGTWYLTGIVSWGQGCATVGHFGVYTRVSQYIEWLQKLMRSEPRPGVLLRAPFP
The test is described as follows: In vitro inhibitory activity against coagulation factor VII (fVIIa).
One may read the Ki as the dissociation constant of the complex between target and ligand, obtained from inhibition or displacement. Read a high Ki as weaker binding. Turning to `CC(NC(=O)CNC(=O)Nc1ccc(C(=N)N)c(F)c1)c1ccc2c(c1)NC(=O)CO2` (stereo not given), the Ki is 0.47 µM.
Take `C[C@H](NC(=O)CNC(=O)Nc1ccc(C(=N)N)c(Cl)c1)c1cccc(Br)c1`: the Ki was 3.76 µM.
As to `N=C(N)c1ccc(NC(=O)NCC(=O)NCc2cccc(Br)c2)cc1`, the inhibitory constant (Ki) came out at 1.51 µM.
For the compound `C[C@H](NC(=O)Nc1ccc(C(=N)N)cc1)C(=O)NCc1ccc(Cl)c(Cl)c1`, the affinity corresponds to a Ki of 45.8 µM.
As for `C[C@H](NC(=O)C(NC(=O)Nc1ccc(C(=N)N)cc1)c1ccccc1)c1cccc(Br)c1` (stereo not given in full), the Ki was 3.2 µM.
On to `C[C@H](NC(=O)CNC(=O)Nc1ccc(C(=N)N)cc1)c1ccc2c(c1)OCCO2`, for which the Ki came out at 0.067 µM.
`COc1cccc([C@H](C)NC(=O)CNC(=O)Nc2ccc(C(=N)N)cc2)c1` registered a Ki of 0.035 µM.
The compound `C[C@H](NC(=O)CNC(=O)Nc1ccc(C(=N)N)cc1)c1cccc(Br)c1` had a Ki of 0.027 µM.
For the compound `C[C@H](NC(=O)CNC(=O)Nc1ccc(C(=N)N)c(F)c1)c1cccc(Br)c1`, the affinity corresponds to a Ki of 0.12 µM.
For the compound `C[C@@H](NC(=O)CNC(=O)Nc1ccc(C(=N)N)cc1)c1cccc(Br)c1`, the Ki worked out at 31 µM.

The target in the next test is Coagulation factor X (Homo sapiens, UniProt P00742). Nature of the test: In vitro inhibitory activity against […] coagulation factor (fXa).
Coagulation factor X, sequence (P00742 41-179 limits assumed): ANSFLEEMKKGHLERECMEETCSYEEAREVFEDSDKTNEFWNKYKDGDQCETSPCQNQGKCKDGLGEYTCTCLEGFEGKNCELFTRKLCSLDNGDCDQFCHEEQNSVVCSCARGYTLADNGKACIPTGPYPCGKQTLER
Coagulation factor X, sequence (P00742 235-488 limits assumed): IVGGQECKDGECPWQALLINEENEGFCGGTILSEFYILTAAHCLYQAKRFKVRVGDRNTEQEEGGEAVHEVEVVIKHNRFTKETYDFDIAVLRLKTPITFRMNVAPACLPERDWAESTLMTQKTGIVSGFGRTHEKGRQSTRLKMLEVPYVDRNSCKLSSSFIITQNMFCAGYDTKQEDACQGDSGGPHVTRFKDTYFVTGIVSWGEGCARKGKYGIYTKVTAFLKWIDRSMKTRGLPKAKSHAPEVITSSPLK
In turn, `N=C(N)c1ccc(NC(=O)NCC(=O)NCc2cccc(Br)c2)cc1` gave a Ki of 7.8 µM.
With `CC(NC(=O)CNC(=O)Nc1ccc(C(=N)N)cc1)c1ccc2c(c1)NC(=O)CO2` (stereo not given), the Ki is above 10 µM.
Still for that read-out and setting: for `C[C@H](NC(=O)CNC(=O)Nc1ccc(C(=N)N)cc1)c1ccc2c(c1)OCCO2` the value was above 10 µM; for `N=C(N)c1ccc(NC(=O)NCC(=O)NCc2ccc(Cl)c(Cl)c2)cc1`, 14.5 µM; for `COc1cccc([C@H](C)NC(=O)CNC(=O)Nc2ccc(C(=N)N)cc2)c1`, above 10 µM.
On to `C[C@H](NC(=O)CNC(=O)Nc1ccc(C(=N)N)cc1)c1cccc(Br)c1`, for which the Ki was above 10 µM.
Compound `CC(NC(=O)CNC(=O)Nc1ccc(C(=N)N)cc1)c1ccc(C(F)(F)F)cc1C(F)(F)F` (stereo not given) registered a Ki above 10 µM.
Compound `CC(C)(NC(=O)CNC(=O)Nc1ccc(C(=N)N)cc1)c1ccccc1` yielded a Ki above 10 µM.
Still for that read-out and setting: for `C[C@H](NC(=O)CNC(=O)Nc1ccc(C(=N)N)cc1)c1ccccc1` the value was above 10 µM.
Same read-out and setting: then `C[C@@H](NC(=O)CNC(=O)Nc1ccc(C(=N)N)cc1)c1ccccc1`, with above 10 µM.

Another test has as its target Prothrombin (Homo sapiens, UniProt P00734). The test is described as follows: In vitro inhibitory activity against thrombin.
Turning to `N=C(N)c1ccc(NC(=O)NCC(=O)NCc2cccc(Br)c2)cc1`, the Ki was above 50 µM.
Take `CC(NC(=O)CNC(=O)Nc1ccc(C(=N)N)cc1)c1ccc2c(c1)NC(=O)CO2` (stereo not given): the Ki came to 16.4 µM.
As to `C[C@H](NC(=O)CNC(=O)Nc1ccc(C(=N)N)cc1)c1ccc2c(c1)OCCO2`, the affinity, expressed as Ki, was 11.2 µM.
As to `N=C(N)c1ccc(NC(=O)NCC(=O)NCc2ccc(Cl)c(Cl)c2)cc1`, the Ki was 10.1 µM.
`COc1cccc([C@H](C)NC(=O)CNC(=O)Nc2ccc(C(=N)N)cc2)c1`: the Ki was determined as 18.2 µM.
The compound `C[C@H](NC(=O)CNC(=O)Nc1ccc(C(=N)N)cc1)c1cccc(Br)c1` had a Ki of 15.9 µM.
The compound `CC(NC(=O)CNC(=O)Nc1ccc(C(=N)N)cc1)c1ccc(C(F)(F)F)cc1C(F)(F)F` (stereo not given) displayed a Ki above 100 µM.
For `CC(C)(NC(=O)CNC(=O)Nc1ccc(C(=N)N)cc1)c1ccccc1`, the Ki is above 50 µM.
Take `C[C@H](NC(=O)CNC(=O)Nc1ccc(C(=N)N)cc1)c1ccccc1`: the inhibition constant Ki was determined as 50.7 µM.
On to `C[C@@H](NC(=O)CNC(=O)Nc1ccc(C(=N)N)cc1)c1ccccc1`, for which the Ki is above 50 µM.
